Experiments:
[1] = tested on: blood-brain barrier of MCAO mice; experiment: BBB permeability assay, 14C-sucrose influx in mice; assay type: in vivo, mouse; conditions: for BBB permeability (14C-sucrose), relative to Sham = 100: C/EBP-α experiment, MCAO 272.1%, Fig. 5B; for 14C-sucrose influx rate (Ki), right cerebral hemisphere: n = 6, mean ± SD
Source text: To evaluate the therapeutic function of TZP against IS, four groups were divided: Sham, TZP, MCAO, and MCAO + TZP groups. In the Sham and MCAO groups, normal saline was intraperitoneally administered to sham-operated and MCAO-operated wide-type (WT) mice once a week for 8 weeks, respectively. In the TZP and MCAO + TZP groups, sham-operated and MCAO-operated WT mice were intraperitoneally administered with 10 nmol/kg TZP once a week for 8 weeks, respectively. To confirm the involvement of C/EBPα in the function of TZP, four groups were divided: Sham, MCAO, MCAO + TZP, and MCAO + C/EBP-α-/- + TZP. Administrations in the Sham, MCAO, and MCAO + TZP groups were described above. MCAO-operated C/EBP-α-/- mice in the MCAO + C/EBP-α-/- + TZP group received an intraperitoneal injection of 10 nmol/kg TZP every week for eight weeks. ^14C-sucrose (1 µCi, i.v.) was administered, and brain uptake was measured after 10 min. The influx rate (Ki, µL/g/min) was calculated as [^14C-sucrose]brain (dpm/g)/[^14C-sucrose]plasma (dpm/mL) × time (min).

C/EBP-α = C/EBP-α expression in mouse cortex (RT-PCR, western blot); assay type: in vivo; conditions: Fig. 4A, B
Description: 1 mL of RNAiso Plus solution was added to the pulverized rodent cerebral cortex samples or cellular material. Following complete homogenization, the liquid fraction was extracted after high-speed centrifugation. The overall RNA pellet was then washed with 75% ethanol, and the RNA was subsequently harvested for reverse transcription. These specific procedures were carried out in accordance with the instructions provided in the PrimeScript RT reagent Kit (TaKaRa, Japan). Real-time PCR detection was performed following the experimental protocols of the Applied Biosystems 7300 instrument. Gene expression levels were determined based on cycle threshold counts.
Claudin-1 and C/EBP-α were analyzed in brain homogenates (right hemisphere: Sham, MCAO, MCAO + TZP) and HBMVECs (Control, OGD/R, OGD/R + TZP). A lysis solution, composed of 1% protease inhibitor in RIPA buffer (Sigma-Aldrich, R0278), was introduced to samples, which were homogenized over ice for 30 min. The homogenate was centrifuged at 13,500 rpm for 10 min at 4 °C. Protein was quantified using the BCA assay kit (Sigma-Aldrich, BCA1), and 50 µg protein/lane was separated on 10% SDS-PAGE and transferred to PVDF in electrophoresis buffer at 200 mA for 2 h. The membrane was blocked with 5% skim milk in TBST for 1 h. […] Bands were detected via ECL (Bio-Rad, 1705061), quantified with ImageJ, and normalized to GAPDH.

Claudin-1 = Claudin-1 expression in OGD/R-stimulated HBMVECs (real-time PCR, western blot); assay type: cell-based, human; conditions: for Claudin-1 expressions (mRNA): sh-C/EBP-α experiment, Fig. 9D
Description: 1 mL of RNAiso Plus solution was added to the pulverized rodent cerebral cortex samples or cellular material. Following complete homogenization, the liquid fraction was extracted after high-speed centrifugation. The overall RNA pellet was then washed with 75% ethanol, and the RNA was subsequently harvested for reverse transcription. These specific procedures were carried out in accordance with the instructions provided in the PrimeScript RT reagent Kit (TaKaRa, Japan). Real-time PCR detection was performed following the experimental protocols of the Applied Biosystems 7300 instrument. Gene expression levels were determined based on cycle threshold counts. Claudin-1 and C/EBP-α were analyzed in brain homogenates (right hemisphere: Sham, MCAO, MCAO + TZP) and HBMVECs (Control, […] lysis solution, composed of 1% protease inhibitor in RIPA buffer (Sigma-Aldrich, R0278), was introduced to samples, which were homogenized over ice for 30 min. The homogenate was centrifuged at 13,500 rpm for 10 min at 4 °C. Protein was quantified using the BCA assay kit (Sigma-Aldrich, BCA1), and 50 μg protein/lane was separated on 10% SDS-PAGE and transferred to PVDF in electrophoresis buffer at 200 mA for 2 h. The membrane was blocked with 5% skim milk in TBST for 1 h. Primary antibodies were incubated overnight at 4 °C: Claudin-1 (1:1000, Abcam, ab15098), C/EBP-α (1:1000, Santa Cruz Biotechnology, sc-166258), and GAPDH (1:2000, Sigma-Aldrich, A5441). HRP-conjugated secondary antibodies (1:5000, Santa Cruz, sc-2357) were incubated for 1 h. Bands were detected via ECL (Bio-Rad, 1705061), quantified with ImageJ, and normalized to GAPDH. HBMVECs were sourced from ATCC (USA). These cells were cultivated in a medium specifically designed for endothelial cultures, enriched with 10% FBS, and maintained in an incubator set at a temperature of 37 °C with 5% CO2. For OGD/R modeling, the culture medium was replaced with a serum-free, glucose-free medium, and then it was placed in a hypoxic environment (1% O2, 5% CO2, 94% N2) at a 37 °C incubator for 10 h. […]

With `CC[C@H](C)[C@H](NC(=O)[C@H](CC(C)C)NC(=O)[C@H](Cc1c[nH]c2ccccc12)NC(=O)[C@H](CCC(N)=O)NC(=O)[C@@H](NC(=O)[C@H](Cc1ccccc1)NC(=O)[C@H](C)NC(=O)[C@H](CCCCNC(=O)COCCOCCNC(=O)COCCOCCNC(=O)CC[C@H](NC(=O)CCCCCCCCCCCCCCCCCCC(=O)O)C(=O)O)NC(=O)[C@H](CCC(N)=O)NC(=O)[C@H](C)NC(=O)[C@@H](NC(=O)[C@H](CCCCN)NC(=O)[C@H](CC(=O)O)NC(=O)[C@H](CC(C)C)NC(=O)C(C)(C)NC(=O)[C@@H](NC(=O)[C@H](CO)NC(=O)[C@H](Cc1ccc(O)cc1)NC(=O)[C@H](CC(=O)O)NC(=O)[C@H](CO)NC(=O)[C@@H](NC(=O)[C@H](Cc1ccccc1)NC(=O)[C@@H](NC(=O)CNC(=O)[C@H](CCC(=O)O)NC(=O)C(C)(C)NC(=O)[C@@H](N)Cc1ccc(O)cc1)[C@@H](C)O)[C@@H](C)O)[C@@H](C)CC)[C@@H](C)CC)C(C)C)C(=O)N[C@@H](C)C(=O)NCC(=O)NCC(=O)N1CCC[C@H]1C(=O)N[C@@H](CO)C(=O)N[C@@H](CO)C(=O)NCC(=O)N[C@@H](C)C(=O)N1CCC[C@H]1C(=O)N1CCC[C@H]1C(=O)N1CCC[C@H]1C(=O)N[C@@H](CO)C(N)=O` [TZP, Tirzepatide] the “BBB permeability (14C-sucrose), relative to Sham = 100” value ([1]; MCAO + TZP, WT mice) was 141.9%, the “BBB permeability (14C-sucrose), relative to Sham = 100” value ([1]; TZP-treated MCAO C/EBP-α-/- mice) was 205.7% and the “14C-sucrose influx rate (Ki), right cerebral hemisphere” value ([1]; MCAO + TZP group (10 nmol/kg i.p. weekly, 8 weeks), MCAO 2.582 ± 0.156, P < 0.005 vs. MCAO) was 1.447 ± 0.103 µL/g/min. The “14C-sucrose influx rate (Ki), right cerebral hemisphere” value ([1]; TZP group (sham-operated, 10 nmol/kg i.p. weekly, 8 weeks), Sham 1.00 ± 0.028, P = 0.89 vs. Sham) was 0.995 ± 0.032 µL/g/min, the “C/EBP-α levels in cortex tissues (mRNA, protein)” value (C/EBP-α; MCAO + TZP vs. MCAO (markedly decreased), 10 nmol/kg i.p. weekly, 8 weeks) was “largely enhanced” and the “C/EBP-α levels in cortex tissues (mRNA, protein)” value (C/EBP-α; TZP group (sham-operated, 10 nmol/kg i.p. weekly, 8 weeks) vs. Sham) was “notably elevated”. The “Claudin-1 expressions (mRNA, protein)” value (Claudin-1; OGD/R + 50 and 100 nM TZP vs. OGD/R, Fig. 7A, B) was “notably enhanced”, the “Claudin-1 expressions (mRNA)” value (Claudin-1; OGD/R + TZP (100 nM) vs. OGD/R) was “remarkably elevated” and the “Claudin-1 expressions (mRNA)” value (Claudin-1; OGD/R + sh-C/EBP-α + TZP (100 nM) vs. OGD/R + TZP) was “strikingly restrained”.

From publication PMC12285096, “Tirzepatide mitigates Stroke-Induced Blood-Brain barrier disruption by modulating Claudin-1 and C/EBP-α pathways” (Molecular Medicine, 2025)
